Reference: patent publication US11105794B2, “In vitro nephrotoxicity screening assay” (Hoffmann-La Roche Inc., priority 2016, dated 2021)
l = locked nucleic acid (LNA); d = 2'-deoxy (DNA)

How the values were obtained:
[1] = tested on: A549 cells; experiment: Intracellular ATP assay, A549 cells transfected with oligonucleotide; format: cell-based, human; details: A549, 48 hours after transfection;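 further: ATP as percent of saline control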
Experimental: (§1) A549 cells (ATCC CCL-185) were cultivated according to the manufacturer's instructions in A549 medium [F-12K Nut Mix (Gibco, 21127-022), 1% penicillin/streptomycin (Gibco: 15140-122), 10% FBS (Gibco 16000-044)].
(§2) Prior to treatment with oligonucleotides the A549 cells were seeded in 96 well plates at 3′000 cells per well in A549 regular medium and grown until 60% confluence. […]
Each sample was tested in triplicate.
(§3) A549 were cultivated as described in the “Materials and methods” section. At after at 50-60% confluence the oligonucleotides were transfected into the cells using 0.5 μl Lipofectamin (Invitrogen, 11668-019) in 25 μl OptiMEM® (GIBCO 31985062) and 1 ng or 10 ng oligonucleotide in the same volume OptiMEM. The cells were incubated over night at 37° C. The medium was changed using A459 regular medium+10 ng/ml EGF. 48 hours after transfection the medium was collected for EGF measurements and the cells were harvested for ATP measurements.

[2] = tested on: Human primary proximal tubule epithelial cells (PTEC); experiment: EGF assay, supernatant of primary PTEC cells
Experimental: Prior to treatment with oligonucleotides the primary PTEC cells were seeded into collagen I-coated 96-well plates (Corning, 356407) at a density of 40 000 and 20 000 cells/well respectively in PTEC medium and grown until confluence.
(§4) Oligonucleotides were dissolved in PBS and added to the cell culture at the given concentration, such as 10, 30 or 100 μM. The total volume of each well was 100 μl. PBS served as vehicle control.
(§5) When extra cellular markers, like EGF and KIM-1, were analyzed following the oligonucleotide treatment the medium was collected and stored at −20° C. until further analysis. […] The collected medium was stored at −20° C.
For analysis of human EGF, cell supernatants were thawed on ice, diluted 1:2 and 1:10 in sample dilution buffer (BioRad catalog # M60-009RDPD) and analyzed by Luminex®-based ELISA using human EGF beads (Bio-Plex Pro™ Human Cancer Biomarker Panel 2 EGF Set#171BC603M), or followed by analysis using the Bio-Plex® 200 Systems (BioRad) according to the manufacturer's instructions. Data are reported as mean concentrations and standard deviations of triplicate wells. An increase of EGF levels above 200% was considered as predictive for nephrotoxicity.

[3] = tested on: A549 cells; experiment: EGF assay, A549 cells transfected with oligonucleotide; format: cell-based, human; details: A549, 48 hours after transfection;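 further: values as percent of saline control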
Experimental: as §1, §2, §3

[4] = tested on: Wistar Han Crl:WI(Han) male rats; experiment: In vivo nephrotoxicity in rats; details: 40 mg/kg on days 1 and 8, assessed day 15, 40 mg/kg
Experimental: Purpose bred Wistar Han Crl:WI(Han) male rats obtained from Charles River Laboratories at 7 to 8 weeks of age were divided into groups of 4 (table 1, exp. A) or 8 (table 1, exp. B) based on body weight and acclimatized for at least 5 days before dosing. The animals were housed under standard environmental conditions ([…], relative humidity 50±20%, a light/dark cycle 12 h/12 h, pelleted food and water ad libitum), were offered enriched environment in an AAALAC accredited facility and were regularly and carefully monitored. All procedures were in accordance with the respective local regulations and according to the animal permissions granted by the Institutional Animal Care and Use Committee. Test compounds were formulated in isotonic sterile saline, sterile filtered (0.22 μm), and dosed at 40 mg/kg on days 1 and 8 (2.5 ml/kg) in the intrascapular region. Control group animals received saline as vehicle control. On day 15 animals were orally administered tap water (10 ml/kg), and urine was collected on ice for 6 hours in metabolic cages. […] On day 15 the rats were sacrificed by an intraperitoneal injection of pentobarbital and exsanguinated. Kidney cortex samples were collected and fixed by immersion in 10% neutral buffered formalin, embedded in paraffin, sectioned to 5 μm and stained with hematoxylin and eosin (H&). The H&E sections were then scanned at 20× magnification using an Aperio ScanScope AT™ (Leica Biosystems) scanner and pictures were then captured via ImageScope™ software from the scanned images. One or more of the following parameters were assessed kidney weight, serum creatinine, urine protein, KIM-1 protein in urine, KIM-1 mRNA, kidney degeneration/regeneration and relative tubulotoxicity grade.

[5] = tested on: PCSK9 mRNA; experiment: Target knock down (PCSK9 mRNA levels) in PTEC-TERT1 cells; format: cell-based, human; details: normalized to PPIB
Experimental: For assessment of the target knock down (PCSK9 mRNA levels) total mRNA was extracted from the cells adding 100 μl of 1× RNA lysis mixture (QuantiGene® Sample Processing Kit, QS0101) directly into the wells according to the manufacturer's instructions. RNA lysis mixtures were kept at −80° C. until analysis. For gene expression analysis, 20 μl of lysates were mixed with an mRNA-capture magnetic beads sets (Panomics QuantiGene® Plex Set catalog #12697), incubated overnight, processed for branched DNA amplification and analyzed according to the manufacturer's instructions (Panomics QuantiGene® Plex Assay kit, QP1015). The PPIB probe was used as housekeeping gene for normalization. Average Fluoresence Intensity (FI) and standard deviation of 3 biological replicates were calculated and normalized on vehicle control. The results are shown in table 11, and represent the average of three identical treatments.

[6] = tested on: PTEC-TERT1 cells; experiment: EGF assay, supernatant of PTEC-TERT1 cells; details: for Toxicity grade: from EGF, assay window saline vs toxic reference compound 4-1
Experimental: Prior to treatment with oligonucleotides the PTEC-TERT1 were seeded into collagen I-coated 96-well plates (Corning, 356407) at a density of 40 000 and 20 000 cells/well respectively in PTEC medium and grown until confluence.
as §4, §5
For analysis of human EGF, cell supernatants were thawed on ice, diluted 1:2 and 1:10 in sample dilution buffer (BioRad catalog # M60-009RDPD) and analyzed by Luminex®-based ELISA using human EGF beads (Bio-Plex Pro™ Human Cancer Biomarker Panel 2 EGF Set#171BC603M), or followed by analysis using the Bio-Plex® 200 Systems (BioRad) according to the manufacturer's instructions. Data are reported as mean concentrations and standard deviations of triplicate wells.

[7] = tested on: PTEC-TERT1 cells; experiment: Morphological changes of PTEC-TERT1 cells upon oligonucleotide treatment; format: cell-based, human; details: 100 μM oligonucleotide, 7 days, bright field microscopy, vs saline
Experimental: PTEC-TERT1 cells were cultures as described in the “Materials and methods” section. To mimic the physiological exposure of renal tubules to circulating naked oligonucleotide (i.e. without assistance of delivery technology, herein termed gymnosis or gymnotic delivery), confluent monolayers of PTEC-TERT1 cells were exposed to an aqueous solution of 100 μM oligonucleotide. The medium was replaced every three days including 100 μM fresh oligonucleotide in the fresh medium.
After 7 days of treatment the morphological alterations in the treated cell cultures were investigated under bright field microscopy.

[8] = PTEC-TERT1, EGF 0 ng/ml in medium
[9] = PTEC-TERT1, EGF 10 ng/ml in medium
[10] = PTEC-TERT1, 6 days, 10 ng/ml EGF in medium, 25 μM
[11] = PTEC-TERT1, 6 days, 10 ng/ml EGF in medium, 100 μM
[12] = PTEC-TERT1, 6 days, No EGF in Medium, 25 μM
[13] = PTEC-TERT1, 6 days, No EGF in Medium, 100 μM
[14] = PTEC-TERT1, Day 3, 3 μM (Table 2)
[15] = PTEC-TERT1, Day 3, 10 μM (Table 2)
[16] = PTEC-TERT1, Day 3, 11 μM (Table 3)
[17] = PTEC-TERT1, Day 3, 30 μM (Table 2)
[18] = PTEC-TERT1, Day 3, 33 μM (Table 3)
[19] = PTEC-TERT1, Day 3, 100 μM (Table 2)
[20] = PTEC-TERT1, Day 3, 100 μM (Table 3)
[21] = PTEC-TERT1, Day 6, 3 μM (Table 2)
[22] = PTEC-TERT1, Day 6, 10 μM (Table 2)
[23] = PTEC-TERT1, Day 6, 30 μM (Table 2)
[24] = PTEC-TERT1, Day 6, 100 μM (Table 2)
[25] = PTEC-TERT1, Day 7, 11 μM (Table 3)
[26] = PTEC-TERT1, Day 7, 33 μM (Table 3)
[27] = PTEC-TERT1, Day 7, 100 μM (Table 3)
[28] = PTEC-TERT1, Day 10, 11 μM (Table 3)
[29] = PTEC-TERT1, Day 10, 33 μM (Table 3)
[30] = PTEC-TERT1, Day 10, 100 μM (Table 3)

TGCtacaaaacCCA (antisense TGCTACAAAACCCA; sugars from the 5' end l3 d8 l3, backbone and methylation of C not given here) [Compound 3-1]
ATP ([1]; 1 ng oligonucleotide): 91 % saline | ATP ([1]; 10 ng oligonucleotide): 44 % saline | EGF ([2]; Day 3, 3 μM): 114 % saline | EGF ([2]; Day 3, 10 μM): 139 % saline | EGF ([2]; Day 3, 30 μM): 134 % saline | EGF ([2]; Day 3, 100 μM): 269 % saline | EGF ([2]; Day 6, 3 μM): 152 % saline | EGF ([2]; Day 6, 10 μM): 286 % saline | EGF ([2]; Day 6, 30 μM): 653 % saline | EGF ([2]; Day 6, 100 μM): 915 % saline | EGF ([3]; 1 ng oligonucleotide): 99 % saline | EGF ([3]; 10 ng oligonucleotide): 199 % saline | In vivo nephrotoxicity / in vivo grade of toxicity [4]: Medium | PCSK9 mRNA [5, 8]: 2.28 % of saline | PCSK9 mRNA [5, 9]: 1.46 % of saline | EGF [6, 10]: 245.0 pg/mL | EGF [6, 11]: 341.8 pg/mL | EGF [6, 12]: 6.3 pg/mL | EGF [6, 13]: 12.2 pg/mL | EGF [6, 14]: 70 % saline | EGF [6, 15]: 75 % saline | EGF [6, 16]: 151 % saline | EGF [6, 17]: 70 % saline | EGF [6, 18]: 213 % saline | EGF [6, 19]: 128 % saline | EGF [6, 20]: 207 % saline | EGF [6, 21]: 124 % saline | EGF [6, 22]: 137 % saline | EGF [6, 23]: 231 % saline | EGF [6, 24]: 2413 % saline | EGF [6, 25]: 168 % saline | EGF [6, 26]: 287 % saline | EGF [6, 27]: 493 % saline | EGF [6, 28]: 41 % saline | EGF [6, 29]: 138 % saline | EGF [6, 30]: 227 % saline | morphological changes [7]: formed irregular domes and vacuoles

GCtgtgtgagcttGG (antisense GCTGTGTGAGCTTGG; sugars from the 5' end l2 d11 l2, backbone and methylation of C not given here) [Compound 4-1]
ATP ([1]; 1 ng oligonucleotide): 93 % saline | ATP ([1]; 10 ng oligonucleotide): 51 % saline | EGF ([2]; Day 3, 3 μM): 198 % saline | EGF ([2]; Day 3, 10 μM): 323 % saline | EGF ([2]; Day 3, 30 μM): 373 % saline | EGF ([2]; Day 3, 100 μM): 631 % saline | EGF ([2]; Day 6, 3 μM): 525 % saline | EGF ([2]; Day 6, 10 μM): 1171 % saline | EGF ([2]; Day 6, 30 μM): 1588 % saline | EGF ([2]; Day 6, 100 μM): 1403 % saline | EGF ([3]; 1 ng oligonucleotide): 132 % saline | EGF ([3]; 10 ng oligonucleotide): 211 % saline | In vivo nephrotoxicity / in vivo grade of toxicity [4]: high and High and Sever tox | PCSK9 mRNA [5, 8]: 6.84 % of saline | PCSK9 mRNA [5, 9]: 1.47 % of saline | EGF [6, 10]: 731.7 pg/mL | EGF [6, 11]: 1957.8 pg/mL | EGF ([6]; PTEC-TERT1, 6 days, 10 μM oligonucleotide (Table 7)): 2622 % saline | Toxicity grade ([6]; PTEC-TERT1, 6 days, 10 μM): 100 | EGF ([6]; PTEC-TERT1, 6 days, 30 μM oligonucleotide (Table 7)): 7311 % saline | Toxicity grade ([6]; PTEC-TERT1, 6 days, 30 μM): 100 | EGF [6, 12]: 5.4 pg/mL | EGF [6, 13]: 5.3 pg/mL | EGF [6, 14]: 71 % saline | EGF [6, 15]: 116 % saline | EGF [6, 16]: 225 % saline | EGF [6, 17]: 302 % saline | EGF [6, 18]: 368 % saline | EGF [6, 19]: 1572 % saline | EGF [6, 20]: 484 % saline | EGF [6, 21]: 37 % saline | EGF [6, 22]: 222 % saline | EGF [6, 23]: 8398 % saline | EGF [6, 24]: 8899 % saline | EGF [6, 25]: 637 % saline | EGF [6, 26]: 983 % saline | EGF [6, 27]: 983 % saline | EGF [6, 28]: 1177 % saline | EGF [6, 29]: 1865 % saline | EGF [6, 30]: 1792 % saline | morphological changes [7]: adopted a flattened and stable appearance
